“Also recorded” adds a separate entry of the source. Like-named read-outs stand apart in the source and are kept apart here.
Tests used:
IL-11 = assay: human rheumatoid synovial cell IL-11 production (ELISA); assay type: cell-based; details: for IL-11, mean: 48 hours culture
Description: (§1) Synovial membrane tissue was obtained from a patient fulfilling the revised American College of Rheumatology criteria for rheumatoid arthritis who underwent joint replacement surgery. Synovial cell cultures were prepared as described. Briefly, synovial membrane tissue was digested with collagenase type A (1 mg/ml) and DNAase I (0.15 mg/ml) in RPMI 1640 containing 5% FCS for 2 hours at 37° C.
(§2) Similarly, rheumatoid synovial cells spontaneously produce cytokines when cultured in vitro. […] With restricted number of human synovial cells in this sample, the optimal dose for inhibiting TNFα may have been missed.

serum TNFα = serum TNFα level after LPS stimulation (bioassay); assay type: in vivo, mouse (C57BL/6); details: 10 mg/kg (200 μg/mouse) ip or s.c. with 100 μg LPS ip; 90 min
Description: After 90 min. the mice were bled and serum TNFα level was determined by bioassay.

TNFα production = TNFα production by Thioglycollate induced macrophages; assay type: cell-based, mouse (C57BL/6); design: TNFα production, 6 h / TNFα production, 24 h: unit not given here; details: for inhibition at 2 µg/mL / inhibition at 4 µg/mL / inhibition at 6 µg/mL: Mus musculus, Macrophage
From the text: […] […] IFN-γ and IFN-α were purchased from Boehringer Mannheim, Germany.
Thioglycoiate-elicited peritoneal macrophages from C57BL/6 mice.

IL-2 = details: cited from earlier work
spleen cells = assay: mixed leukocyte reaction (MLR); assay type: cell-based, mouse (BALB/c); details: above 4 μg/ml CBD
Description: Cultures were pulsed with ^3H-thymidine and harvested 18 hours later.
Spleen cells (1×10^6/well) were co-cultured in triplicate wells of flat-bottom microtiter plates (Nunc), with an equal number of irradiated ([…]) syngeneic or allogeneic splenocytes in a final volume of 200 μl/well. After 3-days incubation, the cells were labelled with ^3H-thymidine (1 μCi/well) and harvested, following an additional incubation of 18 h, as described above.

TPA-induced erythema = details: applied topically; cited from earlier work
IL-6 = assay: human rheumatoid synovial cell IL-6 production (ELISA); assay type: cell-based; details: for IL-6, mean: 48 hours culture
Description: as §1, §2

[1] = test system: collagen induced arthritis (CIA); assay: histological analysis of hind paw joints in CIA; assay type: in vivo, mouse; details: for joints completely protected: hind paws, day 10, control: no normal joints
Description: The hind paws were assessed as normal, mildly affected or severely destroyed.
Hind paws and knee joints were removed post mortem on the tenth day of arthritis, fixed in formalin and decalcified in 5% EDTA. Paws and knees were then embedded in paraffin, sectioned and stained with haematoxylin and eosin. Arthritic changes in the ankle, the metatarsophalangeal joints, the proximal interphalangeal and the distal interphalangeal joints were scored blindly as mild (mild synovial hyperplasia), moderate (pannus formulation and erosions limited to the cartilage-pannus junction), or severe (=extended bone and cartilage erosions with loss of joint architecture).

IL-8 = assay: human rheumatoid synovial cell IL-8 production (ELISA); assay type: cell-based; details: for IL-8, mean: 48 hours culture
Description: as §1, §2

[2] = test system: spleen cells (splenocytes); assay: mitogen-induced cell proliferation of spleen cells; assay type: cell-based, mouse (BALB/c, C57BL/6)
Description: Cultures were pulsed with ^3H-thymidine and harvested 6 hours later.
Female mice (aged 8-12 weeks) of strains C57BL/6 (B6, H-2^b) and BALB/c (H-2^d) were purchased from Harlan, Jerusalem, and maintained under specific pathogen-free (SPF) conditions in the animal facilities of the Hebrew University Medical School, Jerusalem, in accordance with the Hebrew University guidelines, DMEM (Biological Industries, Beit Haemek. Israel) was supplemented with 1 mM sodium pyruvate, 10 mM HEPES buffer, 0.5 mM asparagine-HCl, 0.03 mM filic acid, 0.5 mM L-aspartic acid, 5×10^−5M 2-mercaptoethanol, 2 mM glutamine, antibotics and 10% FCS (complete DMEM).
Spleen cells, at a final concentration of 5×10^6 cells/ml, were cultured in triplicate wells of flat-bottom microtiter plates (Nunc, Denmark) in medium alone, 2.5 μg/ml concanavalin A (ConA. Biomakor, Israel) or 50 μ/ml lipopolysaccharide (LPS, Difco). The final volume was 200 μl/well. Following two days of incubation at 37° C., in an 8% CO2-in-air incubator (as in all other procedures described here), 1 μCi of ^3H-thymidine was added to each well. Cells were harvested 6 h later, with a Tomtec (USA) cell harvester and counted in a MicroBeta scintillation counter (Wallac, Finland).

[3] = LPS 1 μg/ml + IFNγ 10 U/ml, CBD 2 μg/ml, 24 h

## C=C(C)[C@@H]1CCC(C)=C[C@H]1c1c(O)cc(CCCCC)cc1O [CBD, Cannabidiol]
IL-11
  IL-11 release (in words): dose-dependent inhibition
IL-11; CBD 0.1 μg/ml
  IL-11, mean: 2151 pg/mL
IL-11; CBD 1 μg/ml
  IL-11, mean: 2059 pg/mL
IL-11; CBD 20 μg/ml
  IL-11, mean: 100 pg/mL
Serum TNFα
  serum TNFα level (in words): decreases serum TNFα production; also recorded: reduces serum TNFα levels
TNFα production; LPS 1 μg/ml + IFNγ 10 U/ml, CBD 2 μg/ml, 6 h
  TNFα production, 6 h: 744
TNFα production; [3]
  % INHIBITION of TNFα production, 24 h: enhanced 72%
  TNFα production, 24 h: 4578
TNFα production; LPS 1 μg/ml + IFNγ 10 U/ml, CBD 4 μg/ml, 6 h
  TNFα production, 6 h: 478
TNFα production; LPS 1 μg/ml + IFNγ 10 U/ml, CBD 6 μg/ml, 6 h
  TNFα production, 6 h: 548
TNFα production; LPS 1 μg/ml + IFNγ 10 U/ml, CBD 4 (μg/ml), 24 h
  TNFα production, 24 h: 437
TNFα production; LPS 1 μg/ml + IFNγ 10 U/ml, CBD 6 (μg/ml), 24 h
  TNFα production, 24 h: 207
TNFα production; LPS 1 μg/ml, CBD 2 μg/ml, 6 h
  TNFα production, 6 h: 543
TNFα production; LPS 1 μg/ml, CBD 4 μg/ml, 6 h
  TNFα production, 6 h: 271
TNFα production; LPS 1 μg/ml, CBD 6 μg/ml, 6 h
  TNFα production, 6 h: 290
TNFα production; LPS 1 μg/ml, CBD 2 (μg/ml), 24 h
  TNFα production, 24 h: 90
TNFα production; LPS 1 μg/ml, CBD 4 (μg/ml), 24 h
  TNFα production, 24 h: 36
TNFα production; LPS 1 μg/ml, CBD 6 (μg/ml), 24 h
  TNFα production, 24 h: 34
TNFα production; 6 h, LPS 1 μg/ml + IFNγ 10 U/ml, CBD 2 μg/ml, 6 h, read-out: % INHIBITION of TNFα production, 6 h
  inhibition at 2 µg/mL: 0%
TNFα production; 6 h, LPS 1 μg/ml + IFNγ 10 U/ml, CBD 4 μg/ml, 6 h, read-out: % INHIBITION of TNFα production, 6 h
  inhibition at 4 µg/mL: 33%
TNFα production; 6 h, LPS 1 μg/ml + IFNγ 10 U/ml, CBD 6 μg/ml, 6 h, read-out: % INHIBITION of TNFα production, 6 h
  inhibition at 6 µg/mL: 24%
TNFα production; 6 h, LPS 1 μg/ml, CBD 2 μg/ml, 6 h, read-out: % INHIBITION of TNFα production, 6 h
  inhibition at 2 µg/mL: 9%
TNFα production; 6 h, LPS 1 μg/ml, CBD 4 μg/ml, 6 h, read-out: % INHIBITION of TNFα production, 6 h
  inhibition at 4 µg/mL: 54%
TNFα production; 6 h, LPS 1 μg/ml, CBD 6 μg/ml, 6 h, read-out: % INHIBITION of TNFα production, 6 h
  inhibition at 6 µg/mL: 51%
TNFα production; 24 h, LPS 1 μg/ml + IFNγ 10 U/ml, CBD 4 μg/ml, 24 h, read-out: % INHIBITION of TNFα production, 24 h
  inhibition at 4 µg/mL: 84%
TNFα production; 24 h, LPS 1 μg/ml + IFNγ 10 U/ml, CBD 6 μg/ml, 24 h, read-out: % INHIBITION of TNFα production, 24 h
  inhibition at 6 µg/mL: 92%
TNFα production; 24 h, LPS 1 μg/ml, CBD 2 μg/ml, 24 h, read-out: % INHIBITION of TNFα production, 24 h
  inhibition at 2 µg/mL: 67%
TNFα production; 24 h, LPS 1 μg/ml, CBD 4 μg/ml, 24 h, read-out: % INHIBITION of TNFα production, 24 h
  inhibition at 4 µg/mL: 87%
TNFα production; 24 h, LPS 1 μg/ml, CBD 6 μg/ml, 24 h, read-out: % INHIBITION of TNFα production, 24 h
  inhibition at 6 µg/mL: 88%
TNFα production; low concentrations of CBD
  effect on TNFα production (in words): enhance TNFα production
TNFα production; summary of Table 1
  effect on TNFα production (in words): inhibits TNFα production
IL-2
  IL-2 secretion: did not affect IL-2 secretion
Spleen cells
  3H-thymidine uptake in MLR: slight decrease
TPA-induced erythema
  TPA-induced erythema: reduce TPA-induced erythema
IL-6
  IL-6 release (in words): dose-dependent inhibition
IL-6; CBD 0.1 μg/ml
  IL-6, mean: 281 ng/mL
IL-6; CBD 1 μg/ml
  IL-6, mean: 326 ng/mL
IL-6; CBD 20 μg/ml
  IL-6, mean: 125 ng/mL
[1]; 5 mg/kg CBD, control mice 69%
  joints moderately or severely affected: 42%
[1]; 5 mg/kg CBD
  joints completely protected: 33%
[1]; 10 mg/kg CBD
  joints completely protected: 11%
IL-8
  IL-8 release (in words): dose-dependent inhibition
IL-8; CBD 0.1 μg/ml
  IL-8, mean: 174 ng/mL
IL-8; CBD 1 μg/ml
  IL-8, mean: 183 ng/mL
IL-8; CBD 20 μg/ml
  IL-8, mean: 87 ng/mL
[2]; BALB/C splenocytes
  response of splenocytes to Concanavalin A (ConA) and LPS (3H-thymidine): decreases the response
[2]; C57BL/6 splenocytes
  response of splenocytes to Concanavalin A (ConA) and LPS (3H-thymidine): decreases the response

Reference: patent US6410588B1, “Use of cannabinoids as anti-inflammatory agents” (priority 1998, dated 2002)
